Values after ≈ are worked out from the molar mass of the structure shown.

Experiment in all cases: in vitro antibacterial MIC, agar plate dilution
What all share (format): cell-based

Assay [1] deals with Morganella morganii CMC 84-38. Particulars: Morganella morganii, CMC8438, 18 h, 35° C., read-out: MIC. Put shortly: (§1)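 Agar plate dilution on Mueller-Hinton agar, inoculum about 10^4 CFU per spot applied with a Steers replicator. MIC (mcg/ml) is the lowest compound concentration preventing visible growth after 18 h at 35 °C.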
For assay [2], the system named is Serratia marcescens IO 83-63. Particulars: IO8363, 18 hours, 35° C. Put shortly:
as §1

In assay [3] the test system is Enterobacter cloacae MOR 83-30. The following applies: MOR8330, 18 hours, 35° C. In a few lines: as §1
The subject of assay [4] is Streptococcus faecalis VGH 84-65. Particulars: Enterococcus faecalis, VGH8465, 18 h, 35° C., read-out: MIC. Put shortly:
as §1

Assay [5] has as its system Klebsiella pneumoniae IO 83-5. Particulars: Klebsiella pneumoniae, IO835, 18 h, 35° C., read-out: MIC. In a few lines: as §1
Assay [6] has as its system Pseudomonas aeruginosa LL-1244. Particulars: Pseudomonas aeruginosa, LL1244, 18 h, 35° C., read-out: MIC. In a few lines:
as §1

The next assay concerns Citrobacter div. K 82-24. Particulars: Citrobacter, DIV.K8224, 18 h, 35° C., read-out: MIC. Put shortly: as §1
Assay [7] deals with Staphylococcus aureus CMC 83-131. Particulars: Staphylococcus aureus, CMC83131, 18 h, 35° C., read-out: MIC. Put shortly: as §1
Assay [8] relates to Escherichia coli MOR 84-20. The following applies: Escherichia coli, MOR8420, 18 h, 35° C., read-out: MIC. Put shortly: as §1
The test system of assay [9] is Escherichia coli ATCC 25922. Particulars: Escherichia coli, ATCC25922, 18 h, 35° C., read-out: MIC. Put shortly: as §1
The subject of assay [10] is Staphylococcus aureus Smith. Particulars: Staphylococcus aureus, 18 h, 35° C., read-out: MIC. Put shortly: as §1

Turning to `O=C(O)c1cn(C2CC2)c2cc(N3CCNC(CF)C3)c(F)cc2c1=O` (centres unmarked) [Example 131, 1-Cyclopropyl-6-fluoro-7-[3-(fluoromethyl)-1-piperazinyl]-1,4-dihydro-4-oxo-3-quinolinecarboxylic acid], the MIC in [1] was found to be 0.06 µg/mL (≈ 0.165 µM); in [2], 0.5 µg/mL (≈ 1.38 µM); in assay [3] it was 0.12 µg/mL (≈ 0.33 µM); in assay [4], 1 µg/mL (≈ 2.75 µM); in assay [5] it was 0.12 µg/mL (≈ 0.33 µM); in assay [6], 2 µg/mL (≈ 5.5 µM). Also, the MIC is 0.06 µg/mL (≈ 0.165 µM) in the assay on Citrobacter div. K 82-24; 1 µg/mL (≈ 2.75 µM) in assay [7]; 0.03 µg/mL (≈ 0.0826 µM) in [8]; 0.015 µg/mL (≈ 0.0413 µM) in assay [9]; 0.06 µg/mL (≈ 0.165 µM) in assay [10].

The values are drawn from US5210193A, “Piperazine derivatives” (American Cyanamid Company, priority 1990, dated 1993).
